Data published in publication PMC11933534, “Favipiravir induces HuNoV viral mutagenesis and infectivity loss with clinical improvement in immunocompromised patients” (Clinical Immunology (Orlando, Fla.), 2024).

Legend:
Format in all cases: in vivo
Mx = test: Innate immune gene expression in HuNoV-infected zebrafish larvae: Mx; conditions: tizoxanide 4 ng; HuNoV GII.4 Sydney[P16]; day 2 pi; p = 0.0403
Method: (§1) To generate the cDNA, the ImProm-II Reverse Transcription System (Promega, Madison, WI, USA) was used. Briefly, a total of 1 μg (ca. 8 μL) of extracted RNA was added to 2 μL of random hexamers and incubated at 70 °C for 5 min, followed by 5 min at 4 °C. To this reaction mix a total volume of 30 μL containing 8 μL of Improm II 5× reaction buffer, 6 mM MgCl2, 0.5 mM deoxynucleoside triphosphate, 40 units of RNase inhibitor, 2 μL of Improm II reverse transcriptase, followed by an incubation at 25 °C for 5 min, 37 °C for 1 h, and 72 °C for 15 min. A qPCR was performed with 4 μL template cDNA using the SsoAdvanced Universal SYBR green supermix, 600 nM of forward and reverse primers for IRF-1, Mx and the housekeeping genes 18 s, β-actin, and ef1a. Primer sequences were as previously described [[65], [66], [67], [68]]. Cycling conditions were as follows; polymerase activation at 95 °C for 3 min followed by 40 cycles of denaturation at 95 °C for 15 s, annealing at 55 °C and extension at 72 °C for 30 s (Quantstudio 5, ThermoFisher Scientific, Waltham, MA, USA). Data was normalized to the housekeeping genes and compared to DMSO-injected zebrafish larvae infected with HuNoV to determine the fold induction of the expression, according to the Livak method.

zebrafish larvae = test: Toxicity analysis in zebrafish larvae
Method: (§2) First, compounds were dissolved in 100% DMSO (spectroscopy grade). To determine the correct dose for pericardial injections in zebrafish larvae of all compounds (i.e. favipiravir, tizoxanide and their 1:1 combination), a weight-dependent conversion was applied. For this purpose, the optimized and increased clinical dose of 400 mg favipiravir TDS and 200 mg tizoxanide BD was used. To ensure the weight-converted dose was not toxic for zebrafish larvae of 3 days post fertilization, a toxicity analysis was performed. […] The following parameters were investigated: touch response, morphology, posture, oedema, signs of necrosis, swim bladder and heartbeat.

HuNoV GII.4 Sydney[P16] = test: Antiviral treatment of HuNoV-infected zebrafish larvae (viral RNA by RT-qPCR)
Method: as §2
Zebrafish larvae were anesthetized and positioned as described previously, in short: zebrafish larvae of 3 days post fertilization were anesthetized and transferred to an agarose mold to position them on their dorsal side with the yolk facing upward. In every experiment, the injection needle was calibrated to ensure the precision of the injection volume. Microinjection was performed using an M3301R Manual Micromanipulator (WPI, Friedberg, Germany) and a FemtoJet 4i pressure microinjector (Eppendorf, Hamburg, Germany). Compound-treated zebrafish larvae received a 1 nL (1.5 nL in case of the combination treatment) injection of compound in the pericardial cavity, while negative control zebrafish were injected with an equal volume of DMSO. Subsequently, the zebrafish larvae received an injection of 3 nL virus in the yolk. After both injections, zebrafish larvae were transferred to 6-well plates with Danieau's solution and further maintained in an incubator with a 14/10 h light/dark cycle at 32 °C.
Zebrafish larvae were homogenized (Precellys 24, Bertin Technologies, Montigny-le-Bretonneux, France), the homogenates were cleared by centrifugation (5 min, 9000 g), and RNA was extracted using the Direct-zol RNA kit (Zymo Research, Irvine, CA, USA), according to the manufacturer's protocol. RNA levels were quantified with a one-step RT-qPCR (iTaq Universal Probes One-Step Kit, Bio-Rad, Hercules, CA, USA) as previously described.

IRF-1 = test: Innate immune gene expression in HuNoV-infected zebrafish larvae: IRF-1; conditions: tizoxanide 4 ng; HuNoV GII.4 Sydney[P16]; day 2 pi; p = 0.023
Method: as §1

## O=C(Nc1ncc([N+](=O)[O-])s1)c1ccccc1O [tizoxanide]
Mx
  Fold increase in Mx expression vs untreated (DMSO) infected larvae: 9 fold
Zebrafish larvae; 25 ng favipiravir or 4 ng tizoxanide, drug administered alone
  Toxicity in the zebrafish larval model: did not show toxicity
Zebrafish larvae; tizoxanide 6 ng
  Toxicity in the zebrafish larval model: signs of toxicity, including heart oedema, necrosis and spine curvature
HuNoV GII.4 Sydney[P16]; monotherapy favipiravir 25 ng or tizoxanide 4 ng, in-house GII.4 Sydney[P16] stool sample, peak 2 dpi, p = 0.0006 and 0.001
  Reduction of HuNoV replication: > 1 log10
HuNoV GII.4 Sydney[P16]; tizoxanide 4 ng alone, inoculum SS A, p > 0.05
  Effect on HuNoV replication: no significant effect
IRF-1
  Fold increase in IRF-1 expression vs untreated (DMSO) infected larvae: 4 fold
